These results are taken from article PMC6688508 (Journal of medicinal chemistry, 2019).

Each structure is given as a SMILES string.

The nature of data set [1]: Mouse pharmacokinetic study, plasma and brain. It is filed as in vivo, male Swiss Albino mice. The conditions noted are these: mice.
The target in data set [2] is T1, human D1 (Homo sapiens, UniProt P21728). As to the kind of experiment: D1R GS-mediated GS-cAMP accumulation assay. Particulars: D1R GloSensor assay.
The target of data set [3] is T1, human D1. As to the kind of experiment: BRET β-arrestin2 recruitment assay. The conditions noted are these: D1R BRET assay. (In general: Bioluminescence resonance energy transfer reports proximity on the nanometre scale.)
The target of data set [4] is T2, MOR (Homo sapiens, UniProt P35372). Particulars: in vitro; cited from earlier work.
For data set [5], the target named is T2, MOR. Particulars: in vitro; cited from earlier work. The source holds these as a separate data set.
The mark [6] stands for this setting: 50 mg/kg intraperitoneal injection.

T2 sequence (P35372 whole entry): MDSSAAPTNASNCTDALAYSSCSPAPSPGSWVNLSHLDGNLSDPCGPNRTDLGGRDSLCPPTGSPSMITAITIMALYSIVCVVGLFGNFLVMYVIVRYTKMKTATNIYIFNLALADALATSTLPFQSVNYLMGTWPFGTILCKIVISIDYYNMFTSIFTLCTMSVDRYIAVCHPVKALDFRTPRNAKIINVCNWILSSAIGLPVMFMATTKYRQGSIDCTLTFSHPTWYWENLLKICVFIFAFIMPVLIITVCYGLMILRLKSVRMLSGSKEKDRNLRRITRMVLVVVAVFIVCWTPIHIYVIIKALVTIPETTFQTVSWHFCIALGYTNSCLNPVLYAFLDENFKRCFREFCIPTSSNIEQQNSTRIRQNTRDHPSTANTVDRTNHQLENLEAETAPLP
T1 sequence (P21728 whole entry): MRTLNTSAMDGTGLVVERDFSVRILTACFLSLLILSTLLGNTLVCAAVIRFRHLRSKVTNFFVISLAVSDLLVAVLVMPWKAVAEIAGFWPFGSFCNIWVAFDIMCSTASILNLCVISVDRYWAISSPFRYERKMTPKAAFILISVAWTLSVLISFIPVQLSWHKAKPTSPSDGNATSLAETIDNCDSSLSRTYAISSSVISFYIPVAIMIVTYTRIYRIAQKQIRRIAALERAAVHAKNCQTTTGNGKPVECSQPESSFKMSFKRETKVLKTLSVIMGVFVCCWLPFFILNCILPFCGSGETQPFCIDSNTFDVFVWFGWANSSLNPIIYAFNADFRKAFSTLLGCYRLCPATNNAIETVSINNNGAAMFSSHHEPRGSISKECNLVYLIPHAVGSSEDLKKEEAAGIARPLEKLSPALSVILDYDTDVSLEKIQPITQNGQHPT

Take `Nc1cc(Oc2nccc3occc23)ccc1-c1cccc2nccn12` [Compound 40, 5-(Furo[3,2-c]pyridin-4-yloxy)-2-(imidazo[1,2-a]pyridin-5-yl)-aniline]: in data set [1] (50 mg/kg intraperitoneal), the “tolerability / clinical signs” value is “well tolerated and no clinical signs were observed”. Moreover, in data set [1] (setting [6]), the “peak concentration in the brain” value is “approximately 100 μM” and the “peak concentration in the plasma” value is “approximately 100 μM”.

For the molecule `FC(F)(F)c1cc(Oc2cc(N3CCCCC3)ccn2)ccc1-c1cccc2nccn12` [Compound 50, 5-(4-((4-(Piperidin-1-yl)pyridin-2-yl)oxy)-2-(trifluoromethyl)-phenyl)imidazo[1,2-a]pyridine], the “GS-cAMP accumulation activity in words” value in data set [2] is “inactive in both the GS and β-arrestin2 pathways”. In data set [3], the “β-arrestin2 recruitment activity in words” value was “inactive in both the GS and β-arrestin2 pathways”.

For the molecule `COc1ccsc1CNCC[C@@]1(c2ccccn2)CCOC2(CCCC2)C1` [TRV130], the “EMAX, activation of G protein signaling” value in data set [4] is given as 84%. Also, the “EMAX, recruiting β-arrestin” value in data set [5] was 15%.
